“And” between values parts separate entries of the source, which are not always exact repeats. Equal values may be shown once. “Also recorded” adds a separate entry of the source.
Experiment: Phase 1b MAD plasma pharmacokinetics, non-compartmental analysis
Assay type: in vivo, human
Text: Methods: All study procedures were approved by the IRB, and informed consent was obtained. Three cohorts of volunteers 45-80 years of age with well-controlled comorbidities (NOAD) and one cohort of AD patients diagnosed with cognitive impairment consistent with prodromal AD per International Working Group criteria or mild AD per National Institute on Aging—Alzheimer's Association criteria (n=6 active, 2 placebo per cohort) were enrolled. Participants were admitted to the study site for the duration of the dosing and returned 7-12 days after the last dose for a safety visit. Participants received NTRX-07 (10, 30, or 90 mg) or a placebo in a double-blinded randomization orally once daily for seven days. Subjects were assessed for changes in vital signs, including maneuvers to induce lightheadedness, electrocardiograms, 24-hour electroencephalograms (EEG), and safety laboratory studies. The second cohort returned and received a single repeat dose after a standard high-fat meal. The AD cohort also underwent cognitive testing and had blood samples for biomarkers drawn. Subjects had PK sampling done after the first and final dose of the study drug. An independent safety review committee conducted a blinded safety review of adverse events and plasma levels between each cohort.
All subjects had PK sampling done after the first and final dose of the study drug.
(§1) Raw bioanalytical data were received from Nuvisan following analysis of plasma samples from each of four cohorts. PK parameters were calculated by noncompartmental analysis using standard equations. Specifically, area under the plasma concentration versus time curve (AUC) was calculated using the trapezoid rule. Maximal plasma concentration (Cmax) and time of maximal plasma concentration (Tmax) were taken directly from the data. Clearance divided by bioavailability (Cl/F) was calculated as the dose divided by the AUC. Apparent volume of distribution over bioavailability (Vd/F) was calculated as dose divided by Cmax.
With oral administration of the dose every 24 hours for 7 days, blood samples were taken over a 24-hour interval on Days 1 and 7 and before and after dosing on Day 3.
as §1, with “on Oct. 27, 2022. […]” for “following analysis of plasma samples from each of four cohorts. PK parameters were calculated by noncompartmental analysis using standard equations.”
as §1, with “on Nov. 24, 2022. […]” for “following analysis of plasma samples from each of four cohorts. PK parameters were calculated by noncompartmental analysis using standard equations.”
as §1, with “on Dec. 19, 2022. […]” for “following analysis of plasma samples from each of four cohorts. PK parameters were calculated by noncompartmental analysis using standard equations.”
Raw bioanalytical data were received from Nuvisan on Jun. 30, 2023. […] Specifically, area under the plasma concentration versus time curve (AUC) was calculated using the trapezoid rule. Maximal plasma concentration (Cmax) and time of maximal plasma concentration (Tmax) were taken directly from the data. […]

[1] = Table 9: Cohort A, 10 mg QD oral, Day 1, individual subjects
[2] = Table 10: Cohort A, 10 mg QD oral, Day 7, individual subjects
[3] = Table 11: Cohort B, 30 mg QD oral, Day 1, individual subjects
[4] = Table 12: Cohort B, 30 mg QD oral, Day 7, individual subjects
[5] = Table 13: Cohort B Fed, 30 mg oral, fed state, individual subjects
[6] = Table 14: Cohort C, 90 mg QD oral, Day 1, individual subjects
[7] = Table 15: Cohort C, 90 mg QD oral, Day 7, individual subjects
[8] = Table 16: Cohort D (AD), 90 mg QD oral, Day 1, individual subjects
[9] = Table 17: Cohort D (AD), 90 mg QD oral, Day 7, individual subjects

**Q.** Which “Food effect on Cmax” value (30 mg after standard high-fat meal vs fasted) does the source give for `CC1(Cc2ccccc2)COc2cc(C(=O)N3CCCCC3)ccc21` (centres unmarked) [NTRX-07, 3-benzyl-3-methyl-2,3-dihydrobenzofuran-6-carboxylic acid-piperidine amide] here?
**A.** decreased Cmax; also recorded: muting of Cmax

**Q.** And the “Plasma levels vs target / predicted efficacious levels” value (90 mg dose, allometric scaling of preclinical data)?
**A.** within the target ranges; also recorded: Blood levels equivalent to those that were efficacious in animal models of AD; also recorded: consistent with levels predicted to be efficacious

**Q.** And the “Dose linearity of PK” value (10-90 mg QD)?
**A.** PK is linear across this dose range

**Q.** What about the “Dose linearity of PK (interim analyses)” value (40, 120 and 360 mg SDD QD doses) of the same compound?
**A.** Good dose linearity; also recorded: linear; also recorded: Dose linearity was observed

**Q.** What about the “Accumulation over seven days of dosing” value (Cohort A, 40 mg SDD QD) of the same compound?
**A.** little or no accumulation

**Q.** And the “Accumulation over seven days of dosing” value (Cohort B, 120 mg SDD QD)?
**A.** little or no accumulation

**Q.** What about the “Accumulation over seven days of dosing” value (Cohort C, 360 mg SDD QD) of the same compound?
**A.** little or no accumulation

**Q.** What about the “Average of Cl/F” value (Cohort D AD patients, 90 mg QD oral, Day 1, mean ± SD) of the same compound?
**A.** 62 ± 19 L/h

**Q.** What about the AUClast [1] of the same compound?
**A.** 31.6 ng·h/mL and 66.2 ng·h/mL and 131.4 ng·h/mL and 33.4 ng·h/mL and 126.9 ng·h/mL and 83.1 ng·h/mL

**Q.** What about the Cl/F [1] of the same compound?
**A.** 316.3 L/h and 151.1 L/h and 76.1 L/h and 299.0 L/h and 78.8 L/h and 120.4 L/h

**Q.** What about the Cmax [1] of the same compound?
**A.** 24.2 ng/mL and 45.0 ng/mL and 36.7 ng/mL and 18.2 ng/mL and 52.6 ng/mL and 37.0 ng/mL

**Q.** What about the Tmax [1] of the same compound?
**A.** 1.0 h

**Q.** And the Cl/F (Table 9: Cohort A, 10 mg QD oral, Day 1, mean ± S.D.)?
**A.** 174 ± 108 L/h

**Q.** And the AUC24 h [2]?
**A.** 47.8 ng·h/mL and 88.4 ng·h/mL and 223.8 ng·h/mL and 39.5 ng·h/mL and 80.4 ng·h/mL and 62.9 ng·h/mL

**Q.** What about the Cl/F [2] of the same compound?
**A.** 209.3 L/h and 113.2 L/h and 44.7 L/h and 253.4 L/h and 124.4 L/h and 158.9 L/h

**Q.** And the Cmax [2]?
**A.** 29.6 ng/mL and 39.4 ng/mL and 63.6 ng/mL and 19.6 ng/mL and 46.7 ng/mL and 27.1 ng/mL

**Q.** What about the Tmax [2] of the same compound?
**A.** 1.0 h

**Q.** And the Cl/F (Table 10: Cohort A, 10 mg QD oral, Day 7, mean ± S.D.)?
**A.** 151 ± 74 L/h

**Q.** What about the AUClast [3] of the same compound?
**A.** 141.9 ng·h/mL and 462.4 ng·h/mL and 716.1 ng·h/mL and 369.3 ng·h/mL and 222.6 ng·h/mL and 92.5 ng·h/mL and 293.8 ng·h/mL

**Q.** What about the Cl/F [3] of the same compound?
**A.** 211.4 L/h and 64.9 L/h and 41.9 L/h and 81.2 L/h and 134.7 L/h and 324.4 L/h and 102.1 L/h

**Q.** And the Cmax [3]?
**A.** 60.8 ng/mL and 93.9 ng/mL and 209 ng/mL and 127 ng/mL and 153 ng/mL and 47.9 ng/mL and 70.6 ng/mL

**Q.** What about the Tmax [3] of the same compound?
**A.** 1.0 h (3×) and 2.0 h

**Q.** And the Cl/F (Table 11: Cohort B, 30 mg QD oral, Day 1, mean ± S.D.)?
**A.** 137 ± 99 L/h

**Q.** What about the AUClast [4] of the same compound?
**A.** 113 ng·h/mL and 581 ng·h/mL and 286 ng·h/mL and 212 ng·h/mL and 61 ng·h/mL and 166 ng·h/mL

**Q.** What about the Cl/F [4] of the same compound?
**A.** 265.0 L/h and 51.7 L/h and 105.0 L/h and 141.2 L/h and 492.7 L/h and 181.3 L/h

**Q.** And the Cmax [4]?
**A.** 92.9 ng/mL and 236 ng/mL and 127 ng/mL and 186 ng/mL and 42.4 ng/mL and 37.9 ng/mL

**Q.** And the Tmax [4]?
**A.** 1 h

**Q.** And the Cl/F (Table 12: Cohort B, 30 mg QD oral, Day 7, mean ± S.D.)?
**A.** 206 ± 176 L/h

**Q.** And the AUClast [5]?
**A.** 421 ng·h/mL and 944 ng·h/mL and 471 ng·h/mL and 347 ng·h/mL and 110 ng·h/mL and 312 ng·h/mL and 124 ng·h/mL and 364 ng·h/mL

**Q.** And the Cl/F [5]?
**A.** 71.2 L/h and 31.8 L/h and 63.7 L/h and 86.4 L/h and 272.1 L/h and 96.3 L/h and 242.3 L/h and 82.5 L/h

**Q.** And the Cmax [5]?
**A.** 42 ng/mL and 95.5 ng/mL and 39.6 ng/mL and 32.3 ng/mL and 66.8 ng/mL and 20.3 ng/mL and 58.4 ng/mL

**Q.** What about the Tmax [5] of the same compound?
**A.** 1 h (2×) and 3 h (2×) and 1.5 h (3×) and 6 h

**Q.** And the Cl/F (Table 13: Cohort B Fed, 30 mg oral, fed state, mean ± S.D.)?
**A.** 123 ± 94 L/h

**Q.** What about the AUC24 h [6] of the same compound?
**A.** 1629 ng·h/mL and 857 ng·h/mL and 925 ng·h/mL and 657 ng·h/mL and 1730 ng·h/mL and 1807 ng·h/mL

**Q.** And the Cl/F [6]?
**A.** 55.2 L/h and 105.1 L/h and 97.3 L/h and 137.0 L/h and 52.0 L/h and 49.8 L/h

**Q.** And the Cmax [6]?
**A.** 449 ng/mL and 350 ng/mL and 337 ng/mL and 92.4 ng/mL and 713 ng/mL and 456 ng/mL

**Q.** And the Tmax [6]?
**A.** 1.5 h (3×) and 8 h and 1 h

**Q.** And the Cl/F (Table 14: Cohort C, 90 mg QD oral, Day 1, mean ± S.D.)?
**A.** 83 ± 36 L/h

**Q.** And the AUC24 h [7]?
**A.** 783 ng·h/mL and 604 ng·h/mL and 318 ng·h/mL and 516 ng·h/mL and 876 ng·h/mL and 1349 ng·h/mL

**Q.** What about the Cl/F [7] of the same compound?
**A.** 115.0 L/h and 149.1 L/h and 283.5 L/h and 174.4 L/h and 102.7 L/h and 66.7 L/h

**Q.** And the Cmax [7]?
**A.** 167 ng/mL and 230 ng/mL and 155 ng/mL and 114 ng/mL and 105 ng/mL and 361 ng/mL

**Q.** And the Tmax [7]?
**A.** 2 h and 1.5 h and 3 h

**Q.** What about the Cl/F (Table 15: Cohort C, 90 mg QD oral, Day 7, mean ± S.D.) of the same compound?
**A.** 149 ± 76 L/h

**Q.** What about the AUClast [8] of the same compound?
**A.** 1004 ng·h/mL and 1255 ng·h/mL and 2727 ng·h/mL and 1349 ng·h/mL and 1580 ng·h/mL and 1422 ng·h/mL

**Q.** And the Cl/F [8]?
**A.** 89.6 L/h and 71.7 L/h and 33.0 L/h and 66.7 L/h and 57.0 L/h and 63.3 L/h

**Q.** And the Cmax [8]?
**A.** 234 ng/mL and 491 ng/mL and 685 ng/mL and 435 ng/mL and 434 ng/mL and 587 ng/mL

**Q.** What about the Tmax [8] of the same compound?
**A.** 2 h and 1 h (2×) and 1.5 h

**Q.** And the Cl/F (Table 16: Cohort D (AD), 90 mg QD oral, Day 1, mean ± S.D.)?
**A.** 64 ± 19 L/h

**Q.** What about the AUC24 h [9] of the same compound?
**A.** 1067 ng·h/mL and 994 ng·h/mL and 856 ng·h/mL and 608 ng·h/mL and 689 ng·h/mL

**Q.** And the Cl/F [9]?
**A.** 144.6 L/h and 84.4 L/h and 90.5 L/h and 105.2 L/h and 148.0 L/h and 130.6 L/h
